Laboratory results: patent US8956824B2, “Methods for identifying allosteric modulators of ship polypeptides” (British Columbia Cancer Agency Branch, priority 2006, dated 2015)
“Also recorded” adds a separate entry of the source.

Legend:
[1] = tested on: DNFB-induced ear inflammation; assay: Mouse acute cutaneous anaphylaxis model; type: in vivo; conditions: topical
Procedure: Mouse acute cutaneous anaphylaxis model. 6-8 week old CD1 mice (University of British Columbia Animal Facility, Vancouver, BC) were sensitized to the hapten DNP by cutaneous application of 25 μL of 0.5% dinitroflourobenzene (DNFB) (Sigma, Oakville, Ont) in acetone to the shaved abdomen of mice for two consecutive days. In the AQX-016A experiments shown in FIG. 2F, 20 μCi of tritiated thymidine [3H]-Tdr (GE Healthcare, Piscataway, N.J.) was injected EP one week after the first DNFB application. [3H]-Tdr labels rapidly dividing cells of the mouse, including neutrophils (21). […] The resulting inflammatory cell infiltration was quantitated by taking a 6mm diameter punch from the ear 1 hr later for dissolution in SOLVABLE™ (Perkin Elmer-Packard, Woodbridge, Ont) and liquid scintillation counting as described (21). The ability of test substances to inhibit mast cell degranulation was then determined by calculating the ratio of [3H]-Tdr in the test (right) ear vs the control (left) ear as described (21). […]
In the later AQX-MN100 experiments, shown in FIG. 3E, the mice were sensitized as above with DNFB. […] Optical density readings at 450 nm were taken over 10 min at 30 s intervals. MPO activity was calculated as described (22) and expressed as Units per mg of protein per mL of lysate. […]

[2] = target: T1, C2 domain deleted (ΔC2) SHIP1 enzyme (Mus musculus, UniProt Q9ES52, DEL725-860/G861A/K862A/M863A); assay: In vitro SHIP enzyme assay, C2 domain deleted SHIP1; type: biochemical; conditions: FIG. 4B, FIG. 10
T1 construct: Full length, wild-type SHIP1 enzyme (wt) or SHIP1 enzyme in which the PH or C2 domains were deleted; made in house; 293T cells are stated only for the wild-type enzyme
T1 sequence (Q9ES52 with tags, fused parts or gaps DEL725-860/G861A/K862A/M863A limits assumed): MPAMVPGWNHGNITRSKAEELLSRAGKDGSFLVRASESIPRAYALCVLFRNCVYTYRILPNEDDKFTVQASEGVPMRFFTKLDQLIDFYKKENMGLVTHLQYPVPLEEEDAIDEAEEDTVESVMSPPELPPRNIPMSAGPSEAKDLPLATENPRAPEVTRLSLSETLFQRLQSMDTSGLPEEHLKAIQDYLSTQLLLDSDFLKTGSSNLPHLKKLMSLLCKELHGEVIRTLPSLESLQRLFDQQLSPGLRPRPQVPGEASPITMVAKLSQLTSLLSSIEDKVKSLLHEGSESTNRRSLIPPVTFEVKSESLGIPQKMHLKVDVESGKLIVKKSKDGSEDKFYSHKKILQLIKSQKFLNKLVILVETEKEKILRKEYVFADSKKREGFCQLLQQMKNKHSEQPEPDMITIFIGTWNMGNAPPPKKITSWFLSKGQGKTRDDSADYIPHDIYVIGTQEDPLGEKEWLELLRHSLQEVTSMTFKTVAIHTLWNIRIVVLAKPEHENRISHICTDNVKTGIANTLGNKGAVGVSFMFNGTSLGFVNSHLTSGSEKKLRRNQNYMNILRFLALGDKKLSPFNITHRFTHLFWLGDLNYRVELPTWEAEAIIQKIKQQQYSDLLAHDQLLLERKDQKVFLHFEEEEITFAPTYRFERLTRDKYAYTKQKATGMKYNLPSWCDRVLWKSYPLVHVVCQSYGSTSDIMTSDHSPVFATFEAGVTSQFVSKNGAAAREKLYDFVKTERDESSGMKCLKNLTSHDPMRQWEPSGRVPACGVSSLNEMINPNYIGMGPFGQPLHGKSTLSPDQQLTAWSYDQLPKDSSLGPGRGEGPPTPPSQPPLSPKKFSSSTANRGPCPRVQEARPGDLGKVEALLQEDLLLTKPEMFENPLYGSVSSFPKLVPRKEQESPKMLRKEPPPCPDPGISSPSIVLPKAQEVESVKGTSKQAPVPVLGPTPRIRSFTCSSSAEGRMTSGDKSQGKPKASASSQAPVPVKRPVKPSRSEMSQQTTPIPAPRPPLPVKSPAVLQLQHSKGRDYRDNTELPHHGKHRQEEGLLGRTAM
Description: The mouse SHIP1 ΔC2 domain deletion mutant was generated by a standard PCR-based methodology using the primer pairs listed above, which in addition to being complementary to sequences immediately upstream and downstream of the C2 domain (amino acid residues 725 to 863), introduces a NotI restriction site. The PCR-products were digested with ClaI and NotI, and NotI and XbaI for the upstream and downstream fragments, respectively. Products were then resolved and imaged on a 1% agarose gel containing ethidium bromide and the appropriate sized fragments excised and purified using a column gel extraction kit (Qiagen, Mississauga, ON). In parallel, pME18S plasmid containing the cDNA for N-terminal His6-tagged SHIP1 was digested with ClaI and NotI, resolved and purified as before. Upstream fragment, downstream fragment and digested pME18S-SHIP plasmid were ligated to yield a plasmid coding for SHIP1 with the C2 domain deleted. An N-terminal His6 C2 domain was also generated by PCR using the primer pair indicated above and the resulting product inserted into the pET28C bacterial expression vector using EcoRI and NdeI restriction sites.
In vitro SHIP enzyme assay. The SHIP enzyme assay was performed in 96-well microtitre plates with 10 ng of enzyme/well in a total volume of 25 μL of 20 mM Tris HCl, pH 7.5 and 10 mM MgCl2. SHIP1 enzyme was incubated with test extracts (provided in DMSO) or vehicle for 15 mM at 23° C. before the addition of 100 μM inositol-1,3,4,5-tetrakisphosphate (Echelon Biosciences Inc, Salt Lake City, Utah). The reaction was allowed to proceed for 20 min at 37° C. and the amount of inorganic phosphate released assessed by the addition of Malachite Green reagent followed by an absorbance measurement at 650 nm (15). SHIP2 enzyme was purchased from Echelon Biosciences (Salt Lake City, Utah) and an equivalent amount of inositol phosphatase activity was used in the in vitro enzyme assay. Enzyme data are expressed as the mean of triplicates+/−SEM. Experiments were performed at least 3 times.

activation of SHIP1 with C2 domain deleted ([2]; listed as PI(3,4)P2) | Compound | allergen-induced inflammation (inflammatory cell recruitment to ear, [3H]-Tdr) ([1]; 30 min prior to DNFB, vs vehicle control-treated ear) | activation of SHIP1 with C2 domain deleted [2] | myeloperoxidase (MPO) levels in ears of allergen-challenged mice ([1]; P-value <0.02 vs vehicle)
– | Cc1cc(O)c(O)c2c1[C@]1(C)CC[C@H]3C(C)(C)CCC[C@]3(C)[C@H]1C2 [AQX-016A] | dramatically inhibited allergen-induced inflammation | – | –
– | Cc1cc(O)cc2c1[C@]1(C)CC[C@H]3C(C)(C)CCC[C@]3(C)[C@H]1C2 [AQX-MN100] | – | impaired the ability of SHIP1 to be activated; also recorded: abrogates the ability of SHIP1 to be activated | reduced the levels of the inflammatory cell (neutrophil) specific myeloperoxidase enzyme; also recorded: inhibits DNFB-induced MPO in sensitized mice
abrogates ability to be activated | phosphatidylinositol-3,4-bisphosphate [PI-3,4-P2, reference compound] | – | impaired the ability of SHIP1 to be activated | –
